Source: the supplement of paper PMC10307832

Columns and labels:
Experiment in all cases: relative viability (nuclei count vs DMSO), 5 days (fraction); higher = more cells survive
Shikonin + Alpelisib = compound: CC(C)=CC[C@@H](O)C1=CC(=O)c2c(O)ccc(O)c2C1=O [Shikonin] + Cc1nc(NC(=O)N2CCC[C@H]2C(N)=O)sc1-c1ccnc(C(C)(C)C(F)(F)F)c1 [Alpelisib] (partner 2 µM)
Method in brief: (§1)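 Lung cancer cell lines in 1536-well plates were dosed by pin tool the day after seeding, either with one drug alone or with a fixed anchor-drug dose plus five library-drug doses (not always all listed) in √10 steps. After 5 days, cells were fixed and their nuclei stained in one step (final 0.05% Triton X-100, 1% formaldehyde, 1 ug/ml Hoechst), then counted on 4× images. Relative viability is the nuclei count in treated wells divided by that in vehicle wells. Values are medians of duplicate plates.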

Shikonin + Dasatinib = compound: CC(C)=CC[C@@H](O)C1=CC(=O)c2c(O)ccc(O)c2C1=O [Shikonin] + Cc1nc(Nc2ncc(C(=O)Nc3c(C)cccc3Cl)s2)cc(N2CCN(CCO)CC2)n1 [Dasatinib] (partner 0.075 µM)
Method in brief: as §1

[1] = compound: CC(C)N(CCCNC(=O)Nc1ccc(C(C)(C)C)cc1)C[C@H]1O[C@@H](n2ccc3c(N)ncnc32)[C@H](O)[C@@H]1O + COc1cc2c(Oc3ccc(NC(=O)C4(C(=O)Nc5ccc(F)cc5)CC4)cc3F)ccnc2cc1OCCCN1CCOCC1 [Foretinib] (partner 0.25 µM)
Method in brief: as §1

[2] = compound: CC(C)N(CCCNC(=O)Nc1ccc(C(C)(C)C)cc1)C[C@H]1O[C@@H](n2ccc3c(N)ncnc32)[C@H](O)[C@@H]1O + N=C(N)NC(=N)NCCc1ccccc1 [Phenformin] (partner 250 µM)
Method in brief: as §1

Cell Line | relative viability (Shikonin + Alpelisib; first compound 0.01 µM) | relative viability (Shikonin + Alpelisib; first compound 0.1 µM) | relative viability (Shikonin + Alpelisib; first compound 0.3162 µM) | relative viability (Shikonin + Alpelisib; first compound 1 µM) | relative viability (Shikonin + Dasatinib; first compound 0.01 µM) | relative viability (Shikonin + Dasatinib; first compound 0.1 µM) | relative viability (Shikonin + Dasatinib; first compound 0.3162 µM) | relative viability (Shikonin + Dasatinib; first compound 1 µM) | relative viability ([1]; first compound 0.08 µM) | relative viability ([1]; first compound 0.253 µM) | relative viability ([1]; first compound 0.8 µM) | relative viability ([1]; first compound 2.53 µM) | relative viability ([1]; first compound 8 µM) | relative viability ([2]; first compound 0.08 µM) | relative viability ([2]; first compound 0.253 µM) | relative viability ([2]; first compound 0.8 µM) | relative viability ([2]; first compound 2.53 µM) | relative viability ([2]; first compound 8 µM)
SK-MES-1 | 0.873 | 1.04 | 0.909 | 0.594 | 0.26 | 0.453 | 0.323 | 0.375 | 0.792 | 0.848 | 0.881 | 1 | 0.804 | 0.663 | 0.669 | 0.692 | 0.69 | 0.617
SW 1573 | 0.816 | 0.888 | 0.801 | 0.657 | 0.591 | 0.546 | 0.444 | 0.144 | 0.81 | 0.707 | 0.825 | 0.927 | 1.08 | 0.262 | 0.403 | 0.435 | 0.391 | 0.378
